Experimental data published in ChEMBL document CHEMBL1124438, “Analysis of the in vitro antiviral activity of certain ribonucleosides against parainfluenza virus using a novel computer aided receptor modeling procedure” (1989).

Columns and labels:
Format in all cases: functional
Human alphaherpesvirus 2 = experiment: Virus rating of against herpes simplex virus type 2
Human rhinovirus 1A = experiment: Virus rating against rhinovirus type 1A
Human respirovirus 3 = experiment: Virus rating against parainfluenza virus type 3
Human adenovirus 2 = experiment: Virus rating against adenovirus type 2

Nc1ncnc2c([C@@H]3O[C@H](CO)[C@@H](O)[C@H]3O)[nH]nc12 [FORMYCIN]
Rating (Human alphaherpesvirus 2): 0.2
Rating (Human rhinovirus 1A): 0.1
Rating (Human respirovirus 3): 1.4
Rating (Human adenovirus 2): 0

OC[C@H]1O[C@@H](n2ccc3c(S)ncnc32)[C@H](O)[C@@H]1O
Rating (Human respirovirus 3): 1.15

NC(=O)c1ccnc([C@@H]2O[C@H](CO)[C@@H](O)[C@H]2O)n1
Rating (Human alphaherpesvirus 2): 0
Rating (Human rhinovirus 1A): 0
Rating (Human respirovirus 3): 0.25
Rating (Human adenovirus 2): 0

Cn1nc([C@@H]2O[C@H](CO)[C@@H](O)[C@H]2O)c2nc(=O)[nH]c(N)c21
Rating (Human respirovirus 3): 0.88

Nc1nc(Cl)cc2c1ncn2C1O[C@H](CO)[C@@H](O)[C@H]1O (stereo not given in full)
Rating (Human alphaherpesvirus 2): 0
Rating (Human rhinovirus 1A): 0
Rating (Human respirovirus 3): 0.35
Rating (Human adenovirus 2): 0

O=c1[nH]c(=O)c2[nH]nc([C@@H]3O[C@H](CO)[C@@H](O)[C@H]3O)c2[nH]1
Rating (Human alphaherpesvirus 2): 0.12
Rating (Human rhinovirus 1A): 0
Rating (Human respirovirus 3): 0.68
Rating (Human adenovirus 2): 0

O=C1N=CN=C2C([C@@H]3O[C@H](CO)[C@@H](O)[C@H]3O)=NNC12 (stereo not given in full)
Rating (Human alphaherpesvirus 2): 0
Rating (Human rhinovirus 1A): 0.3
Rating (Human respirovirus 3): 0.94
Rating (Human adenovirus 2): 0

NC(=O)c1csc([C@@H]2O[C@H](CO)[C@@H](O)[C@H]2O)n1 [TIAZOFURIN]
Rating (Human alphaherpesvirus 2): 1.19
Rating (Human rhinovirus 1A): 0
Rating (Human respirovirus 3): 1.3
Rating (Human adenovirus 2): 0.2

CN1C=NC(N)=C2NNC([C@@H]3O[C@H](CO)[C@@H](O)[C@H]3O)=C21
Rating (Human alphaherpesvirus 2): 0
Rating (Human rhinovirus 1A): 0
Rating (Human respirovirus 3): 1.28
Rating (Human adenovirus 2): 0

OC[C@H]1OC(n2ncc3c(S)ncnc32)[C@H](O)[C@@H]1O (stereo not given in full)
Rating (Human alphaherpesvirus 2): 0
Rating (Human rhinovirus 1A): 0
Rating (Human respirovirus 3): 0.7
Rating (Human adenovirus 2): 0

Nc1[nH]c(=O)nc2c([C@@H]3O[C@H](CO)[C@@H](O)[C@H]3O)n[nH]c12
Rating (Human alphaherpesvirus 2): 0.75
Rating (Human rhinovirus 1A): 0
Rating (Human respirovirus 3): 1.22
Rating (Human adenovirus 2): 0

Nc1nn(C2O[C@H](CO)[C@@H](O)[C@H]2O)c2nc[nH]c(=O)c12 (stereo not given in full)
Rating (Human alphaherpesvirus 2): 0
Rating (Human rhinovirus 1A): 0
Rating (Human respirovirus 3): 0.28
Rating (Human adenovirus 2): 0

CSc1ncnc2c([C@@H]3O[C@H](CO)[C@@H](O)[C@H]3O)n[nH]c12
Rating (Human alphaherpesvirus 2): 0.3
Rating (Human rhinovirus 1A): 0
Rating (Human respirovirus 3): 1.35
Rating (Human adenovirus 2): 0.8

Cn1nc([C@@H]2O[C@H](CO)[C@@H](O)[C@H]2O)c2ncnc(N)c21
Rating (Human alphaherpesvirus 2): 0.2
Rating (Human rhinovirus 1A): 0
Rating (Human respirovirus 3): 0.86
Rating (Human adenovirus 2): 0

COc1c([C@@H]2O[C@H](CO)[C@@H](O)[C@H]2O)nn(C)c1C(N)=O
Rating (Human alphaherpesvirus 2): 0.3
Rating (Human rhinovirus 1A): 0
Rating (Human respirovirus 3): 1.65
Rating (Human adenovirus 2): 1

Cn1cnc2c([C@@H]3O[C@H](CO)[C@@H](O)[C@H]3O)nnc-2c1N
Rating (Human alphaherpesvirus 2): 0.88
Rating (Human rhinovirus 1A): 0
Rating (Human respirovirus 3): 1.16
Rating (Human adenovirus 2): 0

OC[C@H]1O[C@@H](C2=NNC3C(=S)N=CN=C23)[C@H](O)[C@@H]1O (stereo not given in full)
Rating (Human alphaherpesvirus 2): 0
Rating (Human rhinovirus 1A): 0.9
Rating (Human respirovirus 3): 1.1
Rating (Human adenovirus 2): 1

N=C(N)c1ncn([C@@H]2O[C@H](CO)[C@@H](O)[C@H]2O)n1 [TARIBAVIRIN]
Rating (Human alphaherpesvirus 2): 0
Rating (Human rhinovirus 1A): 0.2
Rating (Human respirovirus 3): 1.2
Rating (Human adenovirus 2): 0

CSc1ncnc2c1cnn2C1O[C@H](CO)[C@@H](O)[C@H]1O (stereo not given in full)
Rating (Human alphaherpesvirus 2): 0
Rating (Human rhinovirus 1A): 0.6
Rating (Human respirovirus 3): 1.05
Rating (Human adenovirus 2): 0

NC(=O)c1cn(C2O[C@H](CO)[C@@H](O)[C@H]2O)[nH]c1=O (stereo not given in full)
Rating (Human alphaherpesvirus 2): 0
Rating (Human rhinovirus 1A): 0
Rating (Human respirovirus 3): 0.15
Rating (Human adenovirus 2): 0

NC(=O)C1NN=C([C@@H]2O[C@H](CO)[C@@H](O)[C@H]2O)C1=O (stereo not given in full)
Rating (Human alphaherpesvirus 2): 1
Rating (Human rhinovirus 1A): 0.6
Rating (Human respirovirus 3): 1.65
Rating (Human adenovirus 2): 0

O=c1[nH]cnc2c1ccn2[C@@H]1O[C@H](CO)[C@@H](O)[C@H]1O [IMMUNICILLIN H]
Rating (Human rhinovirus 1A): 0
Rating (Human respirovirus 3): 0.08
Rating (Human adenovirus 2): 0

CSc1ncnc2c1ccn2[C@@H]1O[C@H](CO)[C@@H](O)[C@H]1O
Rating (Human alphaherpesvirus 2): 0
Rating (Human rhinovirus 1A): 0.6
Rating (Human respirovirus 3): 0.9
Rating (Human adenovirus 2): 0

Nc1cc2c(ncn2[C@@H]2O[C@H](CO)[C@@H](O)[C@H]2O)c(=O)[nH]1
Rating (Human alphaherpesvirus 2): 1.06
Rating (Human rhinovirus 1A): 1
Rating (Human respirovirus 3): 0.8
Rating (Human adenovirus 2): 0.2

CSc1ncnc2c1ncn2[C@@H]1O[C@H](CO)[C@@H](O)[C@H]1O
Rating (Human alphaherpesvirus 2): 1.25
Rating (Human rhinovirus 1A): 0.8
Rating (Human respirovirus 3): 2.2
Rating (Human adenovirus 2): 0

OC[C@H]1OC(n2cc3c(O)nc(Cl)nc3n2)[C@H](O)[C@@H]1O (stereo not given in full)
Rating (Human alphaherpesvirus 2): 0
Rating (Human rhinovirus 1A): 0
Rating (Human respirovirus 3): 0.25
Rating (Human adenovirus 2): 0

Nc1nc(Cl)nc2c1cnn2C1O[C@H](CO)[C@@H](O)[C@H]1O (stereo not given in full)
Rating (Human alphaherpesvirus 2): 0
Rating (Human rhinovirus 1A): 0
Rating (Human respirovirus 3): 0.15
Rating (Human adenovirus 2): 0

NC(=O)c1ncn([C@@H]2O[C@H](CO)[C@@H](O)[C@H]2O)n1 [RIBAVIRIN]
Rating (Human alphaherpesvirus 2): 1.4
Rating (Human rhinovirus 1A): 0.7
Rating (Human respirovirus 3): 1.3
Rating (Human adenovirus 2): 0.3
